The results in this text go back to patent US12642795B2, “MRGPRX2 antagonist for the treatment of pseudo allergic reactions” (The University of Hong Kong, priority 2021, dated 2026).

One assay has as its system human LAD2 MCs. Briefly: Monocyte chemoattractant protein-1 (MCP-1) measurement by ELISA. In kind it is cell-based. The settings on record: 12.5 μM, 25 μM and 50 μM; compared to C48/80 control. As for the experimental part:
MCP-1 and PGD2 were measured from human LAD2 MCs via individual ELISA kits. Briefly, MCs were seeded at a density of 1.5×10^5 cells/80 μL/well in a 96 well plate in complete Stem-Pro 34 media. […] The cells were centrifuged to collect the supernatant and stored at −80° C. until analyzed. […] After 24 hours, cells were centrifuged to discard the media and lysed with 0.1M potassium phosphate via sonication. The supernatant of cell lysate was collected and stored at −80° C. until analyzed. MCP-1 (Abcam, Cambridge, UK) and PGD2 (Cayman Chemicals, MI, USA) were quantified by ELISA according to manufacturer instruction.
(ELISA stands for enzyme-linked immunosorbent assay.)

The subject of a further assay is Human LAD-2 mast cells. Briefly: β-Hexosaminidase MCs degranulation assay. In kind it is cell-based. The settings on record: LAD2, LAD-2 MCs, followed by EC90 concentration (10 μM) of C48/80. As for the experimental part: Human LAD-2 mast cells were seeded at 2×10^4 cells/well/80 μL in a 96-well plate. A 10× stock of antagonist were prepared in HEPES buffer (HEPES (10 mM), NaCl (137 mM), KCl (2.7 mM), Na2HPO4·7H2O (0.4 mM), glucose (5.6 mM), CaCl2·2H2O (1.8 mM), MgSO4·7H2O (1.3 mM), bovine serum albumin (0.04%), pH 7.4). […] The plate was spun at 450×g for 5 minutes at room temperature, and 50 μL of supernatant was aliquoted to a new 96 well plate. The cells were lysed with 100 μL of 0.1% Triton X-100, and 50 μL of lysate was aliquoted to another 96 well plates. A 1.3 mg/ml solution of the substrate PNAG (4-Nitrophenyl N-acetyl-β-D-glucosaminide) was prepared in 0.1 M citric acid/sodium citrate buffer (pH 4.5, 24.087 g/L Sodium Citrate dihydrate, and 3.471 g/L Citric Acid). 50 μL of PNAG was added to each well of supernatant and lysate, and cells were incubated for 90 min at 37° C. (without CO2). The reaction was stopped by adding 50 μL of 0.4 M Glycine buffer. The extent of yellow color was measured at 405 nm using Victor 4× plate reader (PerkinElmer), and percentage MCs degranulation (β-hexosaminidase release) was calculated by using the formula; % MCs degranulation: […]

Each structure is given as a SMILES string.

Consider `COC(=O)c1cc2cc(NC(N)=O)ccc2cc1-c1ccc2c3c(cccc13)C(=O)C=C2` [GE1109], for which the “inhibition of C48/80 induced MCP-1 release” value in the assay on human LAD2 MCs is “significant activity only at 25 μM, and 50 μM”. 9.87 µM corresponded to half-maximal inhibition with Human LAD-2 mast cells (IC50).

Consider `COC(=O)c1cc2cc(NC(N)=O)ccc2cc1-c1cc2c3c(c(O)ccc3c1)C(C)C(C=O)=C2` (stereo not shown) [GE1111], for which, in the assay on human LAD2 MCs, the “inhibition of C48/80 induced MCP-1 release” value is given as “significantly inhibits the release of MCP-1 at all the tested concentrations”. The molecule also had an IC50 in the assay with Human LAD-2 mast cells of 4.7 µM.

As usually defined, the IC50 is the concentration at which inhibition is half-maximal.
